This is an account of results in patent US12139492B2 (Endotarget Inc., priority 2021, dated 2024).

The structures appear in SMILES notation. pIC50: −log10 of the molar value. Where two headings read alike, the source gives them in different places.

In assay [1] the target is T1, BTK (Homo sapiens, UniProt Q06187). Put plainly: Degradation of BTK protein in JeKo-1 cells (Western blot; DC50, Dmax). The following applies: JeKo-1 mantle cell lymphoma cells, various concentrations, 24 hours.
Procedure: (§2) Namalwa, JeKo-1, or Mino cells were plated in 24-well plates at a density of 10^5 cells/well. Media containing various drug concentrations were added on the day following plating (day 0) and allowed to incubate for 24 hours for Western blot. Media with the tested compound was changed every other day. […] Media were removed and dishes were washed with 1×DPBS. Lysates were made by adding 150 μL of complete lysis solution and scraping cells into a 1.5 mL microcentrifuge tube. Lysates were placed on a rotisserie at 4° C. for 30 min and then spun at 4° C. at 12000 rcf for 10 min. Supernatants were assayed for protein content, snap-frozen, and stored a −80° C. if not run immediately. Then 50 μg of protein was subjected to Western blot protocol. […] They were then imaged on a LICOR infrared scanner.
For assay [2], the target named is T1, BTK. Description: BTK degradation, DC50 and Dmax of Table 1 (cell line not given). The format is cell-based. The arrangement: endogenous in cells. The note with it: for DC50: concentration giving 50% reduction of BTK expression level.
The target of assay [3] is T1, BTK. Put plainly: Degradation of BTK protein in Namalwa cells (Western blot; DC50, Dmax). The note with it: for degradation of BTK protein / degradation of BTK protein at 10^−6 M: Namalwa B lymphocyte cells, Western blot; for degradation of BTK protein: various concentrations, 24 hours; for DC50: read-out: DC50 (BTK degradation), concentration giving 50% reduction of BTK expression level, cell line not given; for Dmax: read-out: Dmax (BTK degradation). On the technique in general: In western blotting, separated proteins are transferred to a membrane and probed.

A further assay has as its system Mino cells. Put plainly: Antiproliferative effect, MTS cell viability assay, Mino cells. The note with it: Homo sapiens, Mino mantle cell lymphoma cells, read-out: IC50 (anti-proliferation) Mino cells. The format is cell-based. The gist of the method:
(§1)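 Tested at six concentrations (0 to 10 μM in tenfold steps), 72 h; viability by MTS, A490.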
Background: Tetrazolium assays rely on reduction of a dye to a coloured formazan, in cell work by metabolically active cells.

For another assay, the system named is JeKo-1 cells. Description: Antiproliferative effect, MTS cell viability assay, JeKo-1 cells. Format: cell-based. The following applies: Homo sapiens; JeKo-1 mantle cell lymphoma cells; read-out: IC50 (anti-proliferation) JeKO-1 cells. The gist of the method:
as §1

For assay [4], the target named is T1, BTK. Description: Degradation of BTK protein in Mino cells (Western blot; DC50, Dmax). The note with it: Mino mantle cell lymphoma cells, various concentrations, 24 hours.
Procedure: as §2

T1 sequence (Q06187 whole entry): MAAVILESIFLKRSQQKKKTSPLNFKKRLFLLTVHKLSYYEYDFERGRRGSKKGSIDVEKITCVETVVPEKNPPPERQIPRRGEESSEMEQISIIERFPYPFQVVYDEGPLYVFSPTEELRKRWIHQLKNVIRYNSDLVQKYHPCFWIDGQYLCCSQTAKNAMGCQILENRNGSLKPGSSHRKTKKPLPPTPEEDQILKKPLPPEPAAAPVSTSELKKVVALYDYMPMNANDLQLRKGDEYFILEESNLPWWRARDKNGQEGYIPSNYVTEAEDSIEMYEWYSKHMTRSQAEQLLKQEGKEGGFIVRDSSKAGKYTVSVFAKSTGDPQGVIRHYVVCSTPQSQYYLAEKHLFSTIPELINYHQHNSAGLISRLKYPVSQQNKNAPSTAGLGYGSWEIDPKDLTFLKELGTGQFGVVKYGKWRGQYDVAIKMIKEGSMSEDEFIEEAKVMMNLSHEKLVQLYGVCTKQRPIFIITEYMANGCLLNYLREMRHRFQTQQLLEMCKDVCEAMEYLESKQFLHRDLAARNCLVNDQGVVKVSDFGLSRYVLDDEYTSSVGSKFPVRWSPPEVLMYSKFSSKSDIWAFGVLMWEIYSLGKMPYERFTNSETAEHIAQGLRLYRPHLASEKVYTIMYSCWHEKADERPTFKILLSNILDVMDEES

`Nc1ncnc2c1c(-c1ccc(Oc3ccccc3)cc1)nn2C1CCN(CC2CCN(C(=O)N3CCN(c4ccc5c(c4)CN(C4CCC(=O)NC4=O)C5=O)CC3)CC2)CC1` (stereo not drawn) [Compound 36, 3-(5-(4-(4-((4-(4-amino-3-(4-phenoxyphenyl)-1H-pyrazolo(3,4-d)pyrimidin-1-yl)piperidin-1-yl)methyl)piperidine-1-carbonyl)piperazin-1-yl)-1-oxoisoindolin-2-yl)piperidine-2,6-dione]: the “degradation of BTK protein” value at BTK [1] and at BTK [3] was “dose-dependent degradation” in each case. In addition, the Dmax – broadly, the greatest extent of degradation seen – at BTK [2] was more than 90%. Moreover, the DC50 (in general, the midpoint of the concentration-degradation curve) at BTK [2] is less than 10 nM. The pIC50 in the assay with Mino cells and with JeKo-1 cells was more than 6.00 in each case.

For `Nc1ncnc2c1c(-c1ccc(Oc3ccccc3)cc1)nn2C1CCN(C(=O)N2CCC(CN3CCN(c4ccc5c(c4)CN(C4CCC(=O)NC4=O)C5=O)CC3)CC2)CC1` (stereo not drawn) [Compound 86, 3-(5-(4-((1-(4-(4-amino-3-(4-phenoxyphenyl)-1H-pyrazolo(3,4-d)pyrimidin-1-yl)piperidine-1-carbonyl)piperidin-4-yl)methyl)piperazin-1-yl)-1-oxoisoindolin-2-yl)piperidine-2,6-dione], the “degradation of BTK protein” value at BTK [1] and at BTK [3] was “dose-dependent degradation” throughout. The same molecule came in with a Dmax on BTK [2] of more than 90%. In addition, the DC50 at BTK [2] was less than 10 nM. Further, the pIC50 in the assay with Mino cells (MINO) and in the assay on JeKo-1 cells was more than 6.00 each time.

In the case of `Nc1ncnc2c1c(-c1ccc(Oc3ccccc3)cc1)nn2C1CCN(C(=O)N2CCC(CCN3CCN(c4ccc5c(c4)C(=O)N(C4CCC(=O)NC4=O)C5=O)CC3)CC2)CC1` (stereo not drawn) [Compound 93, 5-(4-(2-(1-(4-(4-amino-3-(4-phenoxyphenyl)-1H-pyrazolo(3,4-d)pyrimidin-1-yl)piperidine-1-carbonyl)piperidin-4-yl)ethyl)piperazin-1-yl)-2-(2,6-dioxopiperidin-3-yl)isoindoline-1,3-dione], on BTK [2], the Dmax is more than 90% and the DC50 was 10 to 50 nM. In addition, at BTK [3], the “degradation of BTK protein at 10^−6 M” value is “degradation” and the “degradation of BTK protein” value is “dose-dependent degradation”. The pIC50 in the assay with Mino cells (MINO) is 5.00 to 6.00. Moreover, the pIC50 in the assay with JeKo-1 cells is 5.00 to 6.00.

At BTK [2], `Nc1ncnc2c1c(-c1ccc(Oc3ccccc3)cc1)nn2[C@@H]1CCCN(C2CCN(C(=O)N3CCN(c4ccc5c(c4)C(=O)N(C4CCC(=O)NC4=O)C5=O)CC3)CC2)C1` (stereo partly drawn) [Compound 159, 5-(4-((R)-3-(4-amino-3-(4-phenoxyphenyl)-1H-pyrazolo(3,4-d)pyrimidin-1-yl)-(1,4′-bipiperidine)-1′-carbonyl)piperazin-1-yl)-2-(2,6-dioxopiperidin-3-yl)isoindoline-1,3-dione] returned a Dmax of more than 50% and a DC50 of more than 50 nM. The “degradation of BTK protein at 10^−6 M” value at BTK [3] is recorded as “degradation”. Moreover, the pIC50 in the assay with Mino cells (MINO) is 5.00 to 6.00. The pIC50 in the assay with JeKo-1 cells is less than 5.00.

With `Nc1ncnc2c1c(-c1ccc(Oc3ccccc3)cc1)nn2[C@@H]1CCCN(C2CCN(C(=O)N3CCC(C4CCN(c5ccc6c(c5)C(=O)N(C5CCC(=O)NC5=O)C6=O)CC4)CC3)CC2)C1` (stereo partly drawn) [Compound 163, 5-(1′-((R)-3-(4-amino-3-(4-phenoxyphenyl)-1H-pyrazolo(3,4-d)pyrimidin-1-yl)-(1,4′-bipiperidine)-1′-carbonyl)-(4,4′-bipiperidin)-1-yl)-2-(2,6-dioxopiperidin-3-yl)isoindoline-1,3-dione], at BTK [2], the Dmax was more than 75% and the DC50 was more than 50 nM. In addition, on BTK [3], the “degradation of BTK protein at 10^−6 M” value was “degradation” and the “degradation of BTK protein” value was “dose-dependent degradation”. Moreover, in the assay with Mino cells (MINO), the pIC50 was 5.00 to 6.00. In the assay on JeKo-1 cells, the pIC50 is less than 5.00.

Turning to `Nc1ncnc2c1c(-c1ccc(Oc3ccccc3)cc1)nn2[C@@H]1CCCN(C2CCN(C(=O)N3CCC(CN4CCN(c5ccc6c(c5)C(=O)N(C5CCC(=O)NC5=O)C6=O)CC4)CC3)CC2)C1` (stereo partly drawn) [Compound 169, 5-(4-((1-((R)-3-(4-amino-3-(4-phenoxyphenyl)-1H-pyrazolo(3,4-d)pyrimidin-1-yl)-(1,4′-bipiperidine)-1′-carbonyl)piperidin-4-yl)methyl)piperazin-1-yl)-2-(2,6-dioxopiperidin-3-yl)isoindoline-1,3-dione], on BTK [2], the Dmax is more than 90% and the DC50 lay in the range of 10 to 50 nM. At BTK [3], the “degradation of BTK protein at 10^−6 M” value is on record as “degradation” and the “degradation of BTK protein” value is listed as “dose-dependent degradation”. Also, in the assay on Mino cells (MINO), the pIC50 was 5.00 to 6.00. Moreover, the pIC50 with JeKo-1 cells is more than 6.00.

At BTK [2], `Nc1ncnc2c1c(-c1ccc(Oc3ccccc3)cc1)nn2[C@@H]1CCCN(C2CCN(C(=O)N3CCC(CCN4CCN(c5ccc6c(c5)C(=O)N(C5CCC(=O)NC5=O)C6=O)CC4)CC3)CC2)C1` (stereo partly drawn) [Compound 181, 5-(4-(2-(1-((R)-3-(4-amino-3-(4-phenoxyphenyl)-1H-pyrazolo(3,4-d)pyrimidin-1-yl)-(1,4′-bipiperidine)-1′-carbonyl)piperidin-4-yl)ethyl)piperazin-1-yl)-2-(2,6-dioxopiperidin-3-yl)isoindoline-1,3-dione] registered a Dmax of more than 75% and a DC50 of 10 to 50 nM. In addition, on BTK [3], the “degradation of BTK protein at 10^−6 M” value is “degradation” and the “degradation of BTK protein” value is “dose-dependent degradation”. Moreover, the pIC50 in the assay on Mino cells (MINO) was 5.00 to 6.00. Further, the pIC50 with JeKo-1 cells was 5.00 to 6.00.

For the molecule `Nc1ncnc2c1c(-c1ccc(Oc3ccccc3)cc1)nn2C1CCN(C2CCN(CC3CN(c4ccc5c(c4)C(=O)N(C4CCC(=O)NC4=O)C5=O)C3)C2)CC1` (stereo not drawn) [Compound 425, 5-(3-((3-(4-(4-amino-3-(4-phenoxyphenyl)-1H-pyrazolo(3,4-d)pyrimidin-1-yl)piperidin-1-yl)pyrrolidin-1-yl)methyl)azetidin-1-yl)-2-(2,6-dioxopiperidin-3-yl)isoindoline-1,3-dione], the “degradation of BTK protein” value on BTK [1] and at BTK [3] was “dose-dependent degradation” throughout. Also, at BTK [3], the DC50 fell in the range of 10 to 50 nM. On BTK [3], the Dmax is more than 90%. Besides, the pIC50 with Mino cells (MINO) and with JeKo-1 cells was 5.00 to 6.00 throughout.

Consider `Nc1ncnc2c1c(-c1ccc(Oc3ccccc3)cc1)nn2C1CCN(C2CCN(CC3CCN(c4ccc5c(c4)C(=O)N(C4CCC(=O)NC4=O)C5=O)CC3)C2)CC1` (stereo not drawn) [Compound 449, 5-(4-((3-(4-(4-amino-3-(4-phenoxyphenyl)-1H-pyrazolo(3,4-d)pyrimidin-1-yl)piperidin-1-yl)pyrrolidin-1-yl)methyl)piperidin-1-yl)-2-(2,6-dioxopiperidin-3-yl)isoindoline-1,3-dione], for which, at BTK [4], the “degradation of BTK protein” value is listed as “dose-dependent degradation”. Besides, on BTK [3], the “degradation of BTK protein” value was “dose-dependent degradation”, the DC50 is less than 10 nM and the Dmax is more than 90%. Besides, in the assay on Mino cells (MINO), the pIC50 is more than 6.00. Also, the pIC50 in the assay with JeKo-1 cells is more than 6.00.

Regarding `Nc1ncnc2c1c(-c1ccc(Oc3ccccc3)cc1)nn2C1CCN(C(=O)N2CC(N3CCN(c4ccc5c(c4)C(=O)N(C4CCC(=O)NC4=O)C5=O)CC3)C2)CC1` (stereo not drawn) [Compound 477, 5-(4-(1-(4-(4-amino-3-(4-phenoxyphenyl)-1H-pyrazolo[3,4-d]pyrimidin-1-yl)piperidine-1-carbonyl)azetidin-3-yl)piperazin-1-yl)-2-(2,6-dioxopiperidin-3-yl)isoindoline-1,3-dione], the “degradation of BTK protein” value on BTK [4] is “dose-dependent degradation”. For the same molecule, the DC50 on BTK [3] is less than 10 nM. Further, on BTK [3], the Dmax was more than 90%. The pIC50 in the assay on Mino cells (MINO) and in the assay on JeKo-1 cells was more than 6.00 each time.

Turning to `Nc1ncnc2c1c(-c1ccc(Oc3ccccc3)cc1)nn2C1CCN(C(=O)N2CC(N3CCN(c4ccc5c(c4)CN(C4CCC(=O)NC4=O)C5=O)CC3)C2)CC1` (stereo not drawn) [Compound 478, 3-(5-(4-(1-(4-(4-amino-3-(4-phenoxyphenyl)-1H-pyrazolo[3,4-d]pyrimidin-1-yl)piperidine-1-carbonyl)azetidin-3-yl)piperazin-1-yl)-1-oxoisoindolin-2-yl)piperidine-2,6-dione], the “degradation of BTK protein” value at BTK [4] was “dose-dependent degradation”. For the same molecule, on BTK [3], the “degradation of BTK protein” value is given as “dose-dependent degradation”, the DC50 is less than 10 nM and the Dmax is more than 90%. Besides, the pIC50 with Mino cells (MINO) was more than 6.00. For the same molecule, the pIC50 in the assay on JeKo-1 cells was more than 6.00.

Consider `Nc1ncnc2c1c(-c1ccc(Oc3ccccc3)cc1)nn2C1CCN(C(=O)N2CC(N3CCN(c4ccc5c(c4)CN([C@H]4CCC(=O)NC4=O)C5=O)CC3)C2)CC1` [Compound 484, (S)-3-(5-(4-(1-(4-(4-amino-3-(4-phenoxyphenyl)-1H-pyrazolo[3,4-d]pyrimidin-1-yl)piperidine-1-carbonyl)azetidin-3-yl)piperazin-1-yl)-1-oxoisoindolin-2-yl)piperidine-2,6-dione], for which the “degradation of BTK protein” value on BTK [4] is listed as “dose-dependent degradation”. In addition, the DC50 on BTK [3] was less than 10 nM. The Dmax at BTK [3] was more than 90%. Further, the pIC50 with Mino cells (MINO) and with JeKo-1 cells was more than 6.00 throughout.
